According to patent US9540352B2, “Substituted 1,7-naphthyridines as dopamine D1 ligands” (PFIZER INC., priority 2014, dated 2017):

The compounds below were run against Human D1 Receptor (Homo sapiens (Human), UniProt P21728) (assay: Human D1 receptor binding assay ([3H]-SCH23390 competition)). Conditions: over-expressing LTK human cell lines; 0.5 nM [3H]-SCH23390; 30 min at 37 °C; footnote a: geometric mean of ≥5 determinations; footnote b: single determination; read-out: Human D1 Receptor Binding, Ki (nM); Geometric mean of 2-4 determinations (unless otherwise indicated).
Experimental: The affinity of the compounds described herein was determined by competition binding assays similar to those described in Ryman-Rasmussen et al., “Differential activation of adenylate cyclase and receptor internalization by novel dopamine D1 receptor agonists”, Molecular Pharmacology 68(4):1039-1048 (2005).
D1 binding assays were performed using over-expressing LTK human cell lines. […] These ligand and tissue concentrations were used in time course studies to determine linearity and equilibrium conditions for binding. Binding was at equilibrium with the specified amount of tissue in 30 minutes at 37° C. […] The pellet was resuspended in assay buffer [50 mM Tris (pH 7.4@ RT) containing 4 mM MgSO4 and 0.5 mM EDTA]. […] Non-specific binding was determined by radioligand binding in the presence of a saturating concentration of (+)-Butaclamol (10 μM), a D1 antagonist. After a 30 minute incubation period at 37° C., assay samples were rapidly filtered through Unifilter-96 GF/B PEI-coated filter plates and rinsed with 50 mM Tris buffer (pH 7.4 at 4° C.). […] The IC50 value (concentration at which 50% inhibition of specific binding occurs) was calculated by linear regression of the concentration-response data in Microsoft Excel. Ki values were calculated according to the Cheng-Prusoff equation: […]

Chain of Human D1 Receptor (P21728 whole entry): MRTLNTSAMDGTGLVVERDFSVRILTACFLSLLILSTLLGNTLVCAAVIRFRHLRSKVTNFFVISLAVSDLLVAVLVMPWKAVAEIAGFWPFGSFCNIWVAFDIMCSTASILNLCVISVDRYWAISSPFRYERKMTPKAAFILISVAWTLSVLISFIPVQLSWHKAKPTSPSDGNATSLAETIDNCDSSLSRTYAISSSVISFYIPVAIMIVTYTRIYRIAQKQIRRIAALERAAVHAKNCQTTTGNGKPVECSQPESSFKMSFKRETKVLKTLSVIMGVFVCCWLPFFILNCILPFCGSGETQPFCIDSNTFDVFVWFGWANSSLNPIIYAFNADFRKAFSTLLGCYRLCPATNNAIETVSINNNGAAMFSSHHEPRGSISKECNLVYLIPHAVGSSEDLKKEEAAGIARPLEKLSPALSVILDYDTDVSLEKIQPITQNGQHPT

Row | Ki | SMILES
1 | 115 nM | Cc1cc(Oc2nccc3cccnc23)ccc1-c1c(C)n[nH]c(=O)c1C (single isomer, unassigned) [Example 2, (+)-4,6-Dimethyl-5-[2-methyl-4-(1,7-naphthyridin-8-yloxy)phenyl]pyridazin-3(2H)-one]
2 | 102 nM | Cc1cc(Oc2nccc3cccnc23)ccc1-c1c(C)n[nH]c(=O)c1C (single isomer, unassigned) [Example 3, (−)-4,6-Dimethyl-5-[2-methyl-4-(1,7-naphthyridin-8-yloxy)phenyl]pyridazin-3(2H)-one]
3 | 28.5 nM | Cc1cc(Oc2nccc3cccnc23)ccc1-c1c(C)c(=O)[nH]c(=O)n1C [Example 1, 1,5-Dimethyl-6-[2-methyl-4-(1,7-naphthyridin-8-yloxy)phenyl]pyrimidine-2,4(1H,3H)-dione]
4 | 205 nM | Cc1n[nH]c(=O)c(C)c1-c1ccc(Oc2nccc3cccnc23)cc1 [Example 4, 4,6-Dimethyl-5-[4-(1,7-naphthyridin-8-yloxy)phenyl]pyridazin-3(2H)-one]
5 | 1.9 nM | Cc1cc(Oc2nccc3ccccc23)ccc1-c1c(C)c(=O)[nH]c(=O)n1C [Example 5, 6-[4-(Isoquinolin-1-yloxy)-2-methylphenyl]-1,5-dimethylpyrimidine-2,4(1H,3H)-dione]
6 | 105 nM | Cc1cc(Oc2nccc3cccnc23)ccc1-c1c(C)ncnc1C [Example 6, 8-[4-(4,6-dimethylpyrimidin-5-yl)-3-methylphenoxy]-1,7-naphthyridine]
7 | 119 nM | Cc1c(-c2ccc(Oc3nccc4cccnc34)cc2)n(C)c(=O)[nH]c1=O [Example 7, 1,5-dimethyl-6-[4-(1,7-naphthyridin-8-yloxy)phenyl]pyrimidine-2,4(1H,3H)-dione]
8 | 141 nM | Cc1cc(Oc2nccc3ccncc23)ccc1-c1c(C)n[nH]c(=O)c1C [Example 8, 4,6-dimethyl-5-[2-methyl-4-(2,7-naphthyridin-1-yloxy)phenyl]pyridazin-3(2H)-one]
9 | 306 nM | Cc1cc(Oc2nccc3nccnc23)ccc1-c1c(C)n[nH]c(=O)c1C [Example 9, 4,6-dimethyl-5-[2-methyl-4-(pyrido[3,4-b]pyrazin-5-yloxy)phenyl]pyridazin-3(2H)-one]
10 | 124 nM | Cc1cc(Oc2nccc3ncccc23)ccc1-c1c(C)n[nH]c(=O)c1C [Example 10, 4,6-dimethyl-5-[2-methyl-4-(1,6-naphthyridin-5-yloxy)phenyl]pyridazin-3(2H)-one]
11 | 7.8 nM | Cc1cc(Oc2nccc3ccccc23)ccc1-c1c(C)n[nH]c(=O)c1C [Example 11, 5-[4-(isoquinolin-1-yloxy)-2-methylphenyl]-4,6-dimethylpyridazin-3(2H)-one]
12 | 186 nM | COc1ccc2ccnc(Oc3ccc(-c4c(C)n[nH]c(=O)c4C)c(C)c3)c2c1 [Example 12, 5-{4-[(7-methoxyisoquinolin-1-yl)oxy]-2-methylphenyl}-4,6-dimethylpyridazin-3(2H)-one]
13 | 334 nM | Cc1cc(Oc2nccc3ccc(C#N)cc23)ccc1-c1c(C)n[nH]c(=O)c1C [Example 13, 1-[4-(3,5-dimethyl-6-oxo-1,6-dihydropyridazin-4-yl)-3-methylphenoxy]isoquinoline-7-carbonitrile]
14 | 261 nM | Cc1cc(Oc2nccc3cccc(C#N)c23)ccc1-c1c(C)n[nH]c(=O)c1C [Example 14, 1-[4-(3,5-dimethyl-6-oxo-1,6-dihydropyridazin-4-yl)-3-methylphenoxy]isoquinoline-8-carbonitrile]
